# Laboratory results as given in patent publication US10222368B2 (priority 2012, dated 2019).
# Biological target: T1, mu opiate receptor (MOR) (Rattus norvegicus, UniProt P33535)
# T1 construct: from tissue; host or cells: striatal tissue (membrane preparation)
# Experiment: MOR agonist activity using [35S]GTPγS binding assay in striatal membranes
# Type: biochemical
# Conditions: for % DAMGO + BFNA: 1 μM compound + BFNA relative to DAMGO + BFNA; for % DAMGO (0.1 μM): 0.1 μM compound relative to DAMGO (0.1 μM); for MOR agonist activity, [35S]GTPγS binding, FLNA-binding compound as agonist at 0.1 μM: 0.1 μM compound; for MOR agonist activity, [35S]GTPγS binding, FLNA-binding compound as agonist at 0.1 μM / MOR agonist activity, [35S]GTPγS binding, FLNA-binding compound as agonist at 1 μM: Series C-2; for MOR agonist activity, [35S]GTPγS binding, 1 μM + BFNA: 1 μM compound + 1 μM β-FNA (MOR antagonist); for MOR agonist activity ([35S]GTPγS binding to Gαo), preliminary study: average of two runs
# Description: To assess the mu opiate receptor (MOR) agonist activity of positive compounds from the FLNA screening, compounds were tested in a [^35S]GTPγS binding assay using striatal membranes. […] This assay measures a functional consequence of receptor occupancy at one of the earliest receptor-mediated events. The assay permits for traditional pharmacological parameters of potency, efficacy and antagonist affinity, with the advantage that agonist measures are not subjected to amplification or other modulation that may occur when analyzing parameters further downstream of the receptor.
# Thus, striatal tissue was homogenized in 10 volumes of ice cold 25 mM HEPES buffer, pH 7.4, which contained 1 mM EGTA, 100 mM sucrose, 50 μg/ml leupeptin, 0.04 mM PMSF, 2 μg/ml soybean trypsin inhibitor and 0.2% 2-mercaptoethanol. The homogenates were centrifuged at 800×g for 5 minutes and the supernatants were centrifuged at 49,000×g for 20 minutes.
# The resultant striatal membrane preparation (200 μg) was admixed and maintained (incubated) at 30° C. for 5 minutes in reaction buffer as above that additionally contained 1 mM MgCl2 and 0.5 nM [^35S]GTPγS (0.1 μCi/assay, PerkinElmer Life and Analytical Sciences) in a total volume of 250 μl and continued for 5 minutes in the absence or presence of 0.1-10 μM of an assayed compound of interest. The reaction was terminated by dilution with 750 μl of ice-cold reaction buffer that contained 20 mM MgCl2 and 1 mM EGTA and immediate centrifugation at 16,000×g for 5 minutes.
# Normal rabbit serum (1 μl) was added to 1 ml of lysate and incubated at 25° C. for 30 minutes. Nonspecific immune complexes were removed by incubation with 25 μl of protein A/G-conjugated agarose beads at 25° C. for 30 minutes followed by centrifugation at 5,000×g at 4° C. for 5 minutes. The supernatant was divided and separately incubated at 25° C. for 30 minutes with antibodies raised against Gαo proteins (1:1,000 dilutions).
# The immunocomplexes so formed were collected by incubation at 25° C. for 30 minutes with 40 μl of agarose-conjugated protein A/G beads and centrifugation at 5,000×g at 4° C. for 5 minutes. The pellet was washed and suspended in buffer containing 50 mM Tris-HCl, pH 8.0, and 1% NP-40. The radioactivity in the suspension was determined by liquid scintillation spectrometry.
# [1] = 1 μM compound, striatal membranes
# [2] = 1 μM compound, relative to DAMGO
# T1 sequence (P33535 whole entry): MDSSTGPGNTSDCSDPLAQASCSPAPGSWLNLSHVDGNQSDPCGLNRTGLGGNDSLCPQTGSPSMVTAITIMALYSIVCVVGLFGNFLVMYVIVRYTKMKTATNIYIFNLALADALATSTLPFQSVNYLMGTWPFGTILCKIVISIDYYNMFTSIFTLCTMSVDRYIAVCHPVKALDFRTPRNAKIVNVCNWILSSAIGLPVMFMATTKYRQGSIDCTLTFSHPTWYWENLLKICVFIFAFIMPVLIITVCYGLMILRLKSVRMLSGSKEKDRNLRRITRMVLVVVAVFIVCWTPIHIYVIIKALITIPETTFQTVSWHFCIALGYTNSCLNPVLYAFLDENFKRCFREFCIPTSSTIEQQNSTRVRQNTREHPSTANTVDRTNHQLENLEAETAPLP
Structure (SMILES),"MOR agonist activity, [35S]GTPγS binding, FLNA-binding compound as agonist at 0.1 μM (striatal membranes) [%]","MOR agonist activity, [35S]GTPγS binding, 1 μM + BFNA (striatal membranes) [%]","MOR agonist activity, [35S]GTPγS binding, FLNA-binding compound as agonist at 1 μM [1] [%]",other results
CC(=O)c1ccc(C(=O)N2CCC3(CC2)OCCN3S(=O)(=O)c2ccc(C(C)=O)cc2)cc1 [Compound C0052],–,–,–,% DAMGO + BFNA (Series C-1): 97.0%
CCCCc1ccc(S(=O)(=O)N2CCC3(CC2)OCCN3S(=O)(=O)c2ccc(CCCC)cc2)cc1 [Compound C0030],–,–,–,"% DAMGO (0.1 μM) (Series C-1): 96.0%; % DAMGO (1 μM) (Series C-1, 1 μM compound relative to DAMGO (1 μM)): 98.0%"
COc1c2c(cc3c1C(CC(=O)c1ccc(F)c(F)c1)[N+](C)(C)CC3)OCO2 (stereo not drawn) [Compound B0003],–,–,–,% DAMGO + BFNA (Series B): 29.0%
CC(=O)c1ccc(S(=O)(=O)N2CCC3(CC2)NCCS3)cc1 [Compound C0060],166.5,143.9,218.9,–
COc1ccc(S(=O)(=O)N2CCOC23CCNCC3)cc1 [Compound C0027],233.2,72.2,313.9,–
CC(=O)c1ccc(S(=O)(=O)N2CCC3(CC2)OCCN3S(=O)(=O)c2ccc(C(C)=O)cc2)cc1 [Compound C0011],217.0,19.0,305.0,–
COc1ccc(S(=O)(=O)N2CCOC23CCCNC3)cc1 (stereo not drawn) [Compound C0145M-3],193.0,87.0,289.2,–
O=[N+]([O-])c1ccc(S(=O)(=O)N2CCC3(CC2)NCCCO3)cc1 [Compound C0045],149.2,105.3,238.8,–
COc1ccc(S(=O)(=O)N2CCOC23CCN(C(=O)OC(C)(C)C)CC3)cc1 [Compound C0043],175.4,83.3,242.6,–
CS(=O)(=O)c1ccc(S(=O)(=O)N2CCOC23CCN(CC2CC2)CC3)cc1 [Compound C0126M],181.8,108.5,265.3,–
C=CCN1CCC2(CC1)OCCN2S(=O)(=O)c1ccc(C(C)=O)cc1 [Compound C0096M],186.4,127.1,328.9,% DAMGO (1 μM) [2]: 130.0%
COc1cccc(CC(=O)CC2c3c(cc4c(c3OC)OCO4)CC[N+]2(C)C)c1OC.[I-] (stereo not drawn) [Compound B0038],–,–,–,"MOR agonist activity, [35S]GTPγS binding, at 1 μM compound (Series B, 1 μM compound, [35S]GTPγS binding to Gαo, striatal membranes): 205.3%"
CC(=O)c1ccc(S(=O)(=O)N2CC(CN(C)C)OC23CCNCC3)cc1 (stereo not drawn) [Compound C0118M],166.2,79.2,261.5,–
CC(=O)c1ccc(C(=O)N2CCC3(CC2)OCCN3C(=O)c2ccc(C(C)=O)cc2)cc1 [Compound C0054],–,–,–,% DAMGO (0.1 μM) (Series C-1): 47.0%
CCN1CCC2(CC1)OCCN2S(=O)(=O)c1ccc(OC)cc1 [Compound C0089M],234.5,81.9,295.3,–
COc1ccc(S(=O)(=O)N2CCC3(NCCO3)C3CCCCC32)cc1 (stereo not drawn) [Compound C0144M-2],186.3,125.9,295.9,–
CC(=O)N1CCSC12CCN(S(=O)(=O)c1ccc([N+](=O)[O-])cc1)CC2 [Compound C0050],110.3,59.0,127.6,–
O=S(=O)(c1ccc(OC(F)(F)F)cc1)N1CCC2(CC1)OCCN2S(=O)(=O)c1ccc(OC(F)(F)F)cc1 [Compound C0006],–,–,–,% DAMGO + BFNA (Series C-1): 7.2%
CCN1CCC2(CC1)OCCN2S(=O)(=O)c1ccc(C(C)=O)cc1 [Compound C0094M],172.5,115.3,263.5,–
CS(=O)(=O)c1ccc(S(=O)(=O)N2CCOC23CCNCC3)cc1 [Compound C0116M],258.4,152.0,302.8,–
"C[C@@H](NC(=O)[C@@H](N)Cc1ccc(O)cc1)C(=O)NCC(=O)N(C)[C@@H](Cc1ccccc1)C(=O)NCCO [DAMGO, [D-Ala2, N-MePhe4, Gly-ol]-enkephalin, reference compound]",168.5,53.2,266.1,"MOR agonist activity ([35S]GTPγS binding to Gαo), preliminary study (0.1 μM compound as agonist): 144.7%; MOR agonist activity ([35S]GTPγS binding to Gαo), preliminary study (1 μM + βNFA): 56.8%; MOR agonist activity ([35S]GTPγS binding to Gαo), preliminary study (1 μM compound as agonist): 233.4%"
CCCCN1CCC2(CC1)OCCN2S(=O)(=O)c1ccc(C(C)=O)cc1 [Compound C0101M],138.2,174.8,274.3,–
O=[N+]([O-])c1ccc(S(=O)(=O)N2CCC3(CC2)NCCO3)cc1 [Compound C0040],145.8,90.4,308.3,–
CC(=O)c1ccc(S(=O)(=O)N2CC(CN(C)C)OC23CCN(C)CC3)cc1 (stereo not drawn) [Compound C0108M],205.6,76.9,258.5,–
CC(=O)c1ccc(S(=O)(=O)N2C(Cc3c[nH]cn3)C(=O)NC23CCNCC3)cc1 (stereo not drawn) [Compound C0119M],105.7,35.1,167.8,% DAMGO (1 μM) [2]: 83.0%
O=C1CN(Cc2ccccc2)C2(CCN(CC3CC3)CC2)N1 [Compound C0125M],168.6,159.7,195.2,–
CN1CCC2(CC1)OCCN2S(=O)(=O)c1ccc(S(C)(=O)=O)cc1 [Compound C0106M],171.8,117.2,240.7,–
